Source: patent US20150132328A1 (priority 2011, published 2015)
Like-named read-outs stand apart in the source and are kept apart here. Marks after values point to notes of the source that are not given here.

Tests used:
[1] = system: antibodies vs. LR.4 cells
Experimental: This was performed by flow cytometry. LR.4 cells were washed and incubated in serum dilutions obtained from mice, using as second antibody an antibody vs. mouse conjugated to fluoresce.

[2] = system: platelets
[3] = system: platelets; details: three dosages
[4] = system: antibodies against Newcastle; details: 10 ng/dose with Newcastle vaccine
[5] = system: human leukocytes; details: for Phagocytosis: peptide 10^-10M + zinc 10^-9M
Source text: In order to test a different effect of the proliferation, we decided to investigate the effect of peptide+zinc versus peptide+zinc+DTPA on human leukocytes phagocytosis.

[6] = system: THP-1 cells
Source text: We proceeded to perform some related to the proliferative stimulation of the peptide in presence of other divalent cations such as magnesium, copper, and manganese.

[7] = system: LR.4 lymphoma; details: LR.4 + IMMP
Source text: Thymus and spleen were studied since they correspond to lymphatic organs, liver which corresponds to the main organ to which the metastases of abdominal tumors and kidney are directed are directed by their high blood irrigation.

[8] = system: human lymphocytes
[9] = system: THP-1 cells; details: IMMP 10^−10M, no cortisone
[10] = system: newborn rat thymocytes; details: With A
[11] = system: CD4 co-receptor; details: With-A
Experimental: (§1) The Analysis was performed by flow cytometry, using fluorescence intensity histograms, which allowed us to identify three regions: expression negative, low and high.

[12] = system: CD8 co-receptor; details: With-A
Experimental: as §1

Substance: Peptide LEDGPKFL + Zinc [IMMP]
- % of LR.4 cells stained with the serum antibody ([1]; IMMP alone, no tumor, serum dilution 0): 0%
- % of LR.4 cells stained with the serum antibody ([1]; IMMP alone, no tumor, serum dilution 1:2): 0%
- % of LR.4 cells stained with the serum antibody ([1]; IMMP alone, no tumor, serum dilution 1:4): 0%
- % of LR.4 cells stained with the serum antibody ([1]; IMMP alone, no tumor, serum dilution 1:8): 0%
- % of LR.4 cells stained with the serum antibody ([1]; IMMP alone, no tumor, serum dilution 1:16): 0%
- % of LR.4 cells stained with the serum antibody ([1]; IMMP alone, no tumor, serum dilution 1:32): 0%
- % of LR.4 cells stained with the serum antibody ([1]; IMMP alone, no tumor, serum dilution 1:64): 0%
- % of LR.4 cells stained with the serum antibody ([1]; LR.4 + IMMP, serum dilution 0): 100%
- % of LR.4 cells stained with the serum antibody ([1]; LR.4 + IMMP, serum dilution 1:2): 100%
- % of LR.4 cells stained with the serum antibody ([1]; LR.4 + IMMP, serum dilution 1:4): 100%
- % of LR.4 cells stained with the serum antibody ([1]; LR.4 + IMMP, serum dilution 1:8): 100%
- % of LR.4 cells stained with the serum antibody ([1]; LR.4 + IMMP, serum dilution 1:16): 83%
- % of LR.4 cells stained with the serum antibody ([1]; LR.4 + IMMP, serum dilution 1:32): 40%
- % of LR.4 cells stained with the serum antibody ([1]; LR.4 + IMMP, serum dilution 1:64): 15%
- Antibodies vs tumor relative to untreated group ([1]; mouse, in vivo): four times more antibodies
- Increase in blood platelets ([2]; normal animals): ~100%
- Platelets ([2]; normal rats): 1560 ± 248* 10^3/μL
- Platelets ([3]; CC14 + IMMP, pretreatment 50 ng/kg each third day): 886 + 110^# 10^3/μL
- Platelets ([3]; IMMP alone, no CCI4, 50 ng/kg each third day): 1560 + 248* 10^3/μL
- Antibody production against Newcastle (number of times the serum could be diluted with 100% of the response) ([4]; Day 13): 0
- Antibody production against Newcastle (number of times the serum could be diluted with 100% of the response) ([4]; Day 23): 18.0
- Antibody production against Newcastle (number of times the serum could be diluted with 100% of the response) ([4]; Day 30): 64.5
- Antibody production against Newcastle (number of times the serum could be diluted with 100% of the response) ([4]; Day 37): 60.2
- Phagocytosis ([5]; 24 h): 56 ± 2 arbitrary fluorescence intensity units
- Phagocytosis ([5]; 48 h): 185 ± 18 arbitrary fluorescence intensity units
- Increase of phagocytosis ([5]; 48 hours): about four times
- Concentration at which plateau / maximum response of stimulation is reached [6]: 10-10 M
- Increase of potency by adding the ion (times) [6]: ~500 times
- Increase of the potency of the peptide by zinc (times) [6]: more than 200 times
- EC50 ([6]; read-out: Effective concentration 50): 0.01 nM
- Metastases (animals with metastases detected/total number of animals) ([7]; Kidney): 0/5
- Metastases (animals with metastases detected/total number of animals) ([7]; Liver): 0/5
- Metastases (animals with metastases detected/total number of animals) ([7]; Spleen): 0/5
- Metastases (animals with metastases detected/total number of animals) ([7]; Thymus): 0/5
- Concentrations that increased the proliferative response [8]: 10-10 M
- Cell Viability (% with respect to the control) [9]: 180 ± 5%
- Cells Percent CD4 ([10]; [M] 10^−6): 15.1 ± 2.5%
- Cells Percent CD8 ([10]; [M] 10^−6): 5.3 ± 1.5%
- Cells Percent DN ([10]; [M] 10^−6): 6.6 ± 1.7%
- Cells Percent DP ([10]; [M] 10^−6): 72.2 ± 1.5%
- Cells Percent CD4 ([10]; [M] 10^−7): 14.2 ± 3.7%
- Cells Percent CD8 ([10]; [M] 10^−7): 6.0 ± 2.2 %
- Cells Percent DN ([10]; [M] 10^−7): 3.7 ± 0.2%
- Cells Percent DP ([10]; [M] 10^−7): 73.3 ± 2.6%
- Cells Percent CD4 ([10]; [M] 10^−8): 13.9 ± 2.6 %
- Cells Percent CD8 ([10]; [M] 10^−8): 6.1 ± 0.2 %
- Cells Percent DN ([10]; [M] 10^−8): 7.1 ± 2.8%
- Cells Percent DP ([10]; [M] 10^−8): 74.8 ± 0.7 %
- Cells Percent CD4 ([10]; [M] 10^−9): 17.7 ± 1.9 %
- Cells Percent CD8 ([10]; [M] 10^−9): 4.8 ± 1.9%
- Cells Percent DN ([10]; [M] 10^−9): 7.0 ± 1.1 %
- Cells Percent DP ([10]; [M] 10^−9): 70.5 ± 1.2 %
- Cells Percent CD4 ([10]; [M] 10^−10): 16.7 ± 1.0 %
- Cells Percent CD8 ([10]; [M] 10^−10): 4.7 ± 2.2%
- Cells Percent DN ([10]; [M] 10^−10): 5.1 ± 1.9%
- Cells Percent DP ([10]; [M] 10^−10): 73.3 ± 3.0%
- Cells Percent CD4 ([10]; [M] 10^−11): 15.4 ± 0.8 %
- Cells Percent CD8 ([10]; [M] 10^−11): 6.0 ± 1.7%
- Cells Percent DN ([10]; [M] 10^−11): 5.1 ± 2.0%
- Cells Percent DP ([10]; [M] 10^−11): 74.8 ± 5.4%
- Cells Percent CD4 ([10]; [M] 10^−12): 16.7 ± 0.9 %
- Cells Percent CD8 ([10]; [M] 10^−12): 6.0 ± 0.5 %
- Cells Percent DN ([10]; [M] 10^−12): 6.4 ± 0.4%
- Cells Percent DP ([10]; [M] 10^−12): 71.8 ± 3.5 %
- Expression Intensity of CD4, Fluorescence, High ([11]; [IMMP] 10^−6 M): 193.0 ± 3.3 arbitrary fluorescence intensity units
- Expression Intensity of CD4, Fluorescence, Low ([11]; [IMMP] 10^−6 M): 72.9 ± 7.4 arbitrary fluorescence intensity units
- Expression Intensity of CD4, Fluorescence, Negative ([11]; [IMMP] 10^−6 M): 5.0 ± 0.9 arbitrary fluorescence intensity units
- Expression Intensity of CD4, Fluorescence, High ([11]; [IMMP] 10^−7 M): 188.4 ± 4.9 arbitrary fluorescence intensity units
- Expression Intensity of CD4, Fluorescence, Low ([11]; [IMMP] 10^−7 M): 68.6 ± 8.0 arbitrary fluorescence intensity units
- Expression Intensity of CD4, Fluorescence, Negative ([11]; [IMMP] 10^−7 M): 4.5 ± 0.9 arbitrary fluorescence intensity units
- Expression Intensity of CD4, Fluorescence, High ([11]; [IMMP] 10^−8 M): 181.1 ± 4.7 arbitrary fluorescence intensity units
- Expression Intensity of CD4, Fluorescence, Low ([11]; [IMMP] 10^−8 M): 71.0 ± 6.4 arbitrary fluorescence intensity units
- Expression Intensity of CD4, Fluorescence, Negative ([11]; [IMMP] 10^−8 M): 4.7 ± 0.3 arbitrary fluorescence intensity units
- Expression Intensity of CD4, Fluorescence, High ([11]; [IMMP] 10^−9 M): 196.1 ± 5.4 arbitrary fluorescence intensity units
- Expression Intensity of CD4, Fluorescence, Low ([11]; [IMMP] 10^−9 M): 69.5 ± 5.0 arbitrary fluorescence intensity units
- Expression Intensity of CD4, Fluorescence, Negative ([11]; [IMMP] 10^−9 M): 4.5 ± 0.1 arbitrary fluorescence intensity units
- Expression Intensity of CD4, Fluorescence, High ([11]; [IMMP] 10^−10 M): 194.1 ± 10.0 arbitrary fluorescence intensity units
- Expression Intensity of CD4, Fluorescence, Low ([11]; [IMMP] 10^−10 M): 69.6 ± 5.2 arbitrary fluorescence intensity units
- Expression Intensity of CD4, Fluorescence, Negative ([11]; [IMMP] 10^−10 M): 5.0 ± 0.4 arbitrary fluorescence intensity units
- Expression Intensity of CD4, Fluorescence, High ([11]; [IMMP] 10^−11 M): 196.1 ± 5.4 arbitrary fluorescence intensity units
- Expression Intensity of CD4, Fluorescence, Low ([11]; [IMMP] 10^−11 M): 69.5 ± 7.0 arbitrary fluorescence intensity units
- Expression Intensity of CD4, Fluorescence, Negative ([11]; [IMMP] 10^−11 M): 4.5 ± 0.1 arbitrary fluorescence intensity units
- Expression Intensity of CD4, Fluorescence, High ([11]; [IMMP] 10^−12 M): 194.1 ± 7.3 arbitrary fluorescence intensity units
- Expression Intensity of CD4, Fluorescence, Low ([11]; [IMMP] 10^−12 M): 69.6 ± 7.2 arbitrary fluorescence intensity units
- Expression Intensity of CD4, Fluorescence, Negative ([11]; [IMMP] 10^−12 M): 5.0 ± 0.4 arbitrary fluorescence intensity units
- Expression Intensity of CD8, Fluorescence, High ([12]; [IMMP] 10^−6 M): 135.9 ± 3.3 arbitrary fluorescence intensity units
- Expression Intensity of CD8, Fluorescence, Low ([12]; [IMMP] 10^−6 M): 49.9 ± 37.4 arbitrary fluorescence intensity units
- Expression Intensity of CD8, Fluorescence, Negative ([12]; [IMMP] 10^−6 M): 3.1 ± 0.5 arbitrary fluorescence intensity units
- Expression Intensity of CD8, Fluorescence, High ([12]; [IMMP] 10^−7 M): 134.5 ± 4.9 arbitrary fluorescence intensity units
- Expression Intensity of CD8, Fluorescence, Low ([12]; [IMMP] 10^−7 M): 55.1 ± 4.9 arbitrary fluorescence intensity units
- Expression Intensity of CD8, Fluorescence, Negative ([12]; [IMMP] 10^−7 M): 2.4 ± 0.9 arbitrary fluorescence intensity units
- Expression Intensity of CD8, Fluorescence, High ([12]; [IMMP] 10^−8 M): 126.1 ± 4.7 arbitrary fluorescence intensity units
- Expression Intensity of CD8, Fluorescence, Low ([12]; [IMMP] 10^−8 M): 39.2 ± 5.4 arbitrary fluorescence intensity units
- Expression Intensity of CD8, Fluorescence, Negative ([12]; [IMMP] 10^−8 M): 3.2 ± 0.3 arbitrary fluorescence intensity units
- Expression Intensity of CD8, Fluorescence, High ([12]; [IMMP] 10^−9 M): 139.8 ± 5.4 arbitrary fluorescence intensity units
- Expression Intensity of CD8, Fluorescence, Low ([12]; [IMMP] 10^−9 M): 32.7 ± 5.0 arbitrary fluorescence intensity units
- Expression Intensity of CD8, Fluorescence, Negative ([12]; [IMMP] 10^−9 M): 3.2 ± 0.1 arbitrary fluorescence intensity units
- Expression Intensity of CD8, Fluorescence, High ([12]; [IMMP] 10^−10 M): 126.5 ± 7.3 arbitrary fluorescence intensity units
- Expression Intensity of CD8, Fluorescence, Low ([12]; [IMMP] 10^−10 M): 45.8 ± 3.2 arbitrary fluorescence intensity units
- Expression Intensity of CD8, Fluorescence, Negative ([12]; [IMMP] 10^−10 M): 4.1 ± 0.4 arbitrary fluorescence intensity units
- Expression Intensity of CD8, Fluorescence, High ([12]; [IMMP] 10^−11 M): 196.1 ± 5.4 arbitrary fluorescence intensity units
- Expression Intensity of CD8, Fluorescence, Low ([12]; [IMMP] 10^−11 M): 56.5 ± 4.0 arbitrary fluorescence intensity units
- Expression Intensity of CD8, Fluorescence, Negative ([12]; [IMMP] 10^−11 M): 3.5 ± 0.1 arbitrary fluorescence intensity units
- Expression Intensity of CD8, Fluorescence, High ([12]; [IMMP] 10^−12 M): 194.1 ± 7.3 arbitrary fluorescence intensity units
- Expression Intensity of CD8, Fluorescence, Low ([12]; [IMMP] 10^−12 M): 58.1 ± 3.2 arbitrary fluorescence intensity units
- Expression Intensity of CD8, Fluorescence, Negative ([12]; [IMMP] 10^−12 M): 2.0 ± 0.4 arbitrary fluorescence intensity units
